This note sets out measurements from ChEMBL document CHEMBL1201862, “PubChem BioAssay data set” (2004).

Some test systems named below: Malme-3M; HOP-62; MOLT-4; K562; SF-295; OVCAR-3; OVCAR-8; ACHN; SW-620; HCC 2998; SN12C; UACC-62; RXF 393; HL-60; A549; HT-29; COLO 205; OVCAR-4; HCT-116; U-251.
Assay in all cases: NCI tumour cell line growth inhibition, 48 h

Each structure is given as a SMILES string.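 Grown in 96-well plates, cells were treated for 48 hours with each compound at five concentrations. Insufficient inhibition: endpoint recorded as highest concentration tested. GI50: concentration for 50% inhibition of growth.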 Active and inactive are the calls of the source. Cut-off read from the data, not from the text of the source: active = GI50 up to about 1.1 µM and inactive = higher. A value given as a limit tells only on which side of the number the result lay.

Consider `O=S(=O)(N/C(=N\O)Nc1ccc(Cl)cc1)c1ccccc1`, for which the GI50 in the assay on Malme-3M was 4.34 µM (inactive); in the assay with HOP-62, 44.8 µM (inactive); in the assay with MOLT-4, 3.23 µM (inactive); in the assay on K562 it was 6.64 µM (inactive); in the assay with SF-295, 36.6 µM (inactive); in the assay with OVCAR-3 it was 1.23 µM (inactive). Besides, the GI50 was 10.2 µM (inactive) with OVCAR-8; 12.2 µM (inactive) in the assay on ACHN; 10 µM (inactive) in the assay on SW-620; 7.1 µM (inactive) in the assay on HCC 2998; 11.7 µM (inactive) in the assay with SN12C; 14.6 µM (inactive) in the assay on UACC-62. Besides, the GI50 is 2.77 µM (inactive) in the assay on RXF 393; 4.99 µM (inactive) in the assay with HL-60; 21.2 µM (inactive) in the assay on A549; 16.1 µM (inactive) with HT-29; 20.4 µM (inactive) in the assay with COLO 205; 2.33 µM (inactive) in the assay on OVCAR-4. In addition, the values for the GI50 with HCT-116 and in the assay on U-251 were 10.7 µM (inactive) and 19.5 µM (inactive), respectively.
As for `COc1ccc2cc(CNCCCCCCCCCCCCNCc3ccc4cc(OC)ccc4c3)ccc2c1`, the GI50 was 16.6 µM (inactive) in the assay with Malme-3M; 19.4 µM (inactive) in the assay on HOP-62; 21.5 µM (inactive) with MOLT-4; 10.4 µM (inactive) with K562; 19.5 µM (inactive) in the assay with SF-295; 21.2 µM (inactive) in the assay with OVCAR-3. Besides, the GI50 was 15 µM (inactive) with OVCAR-8; 19.6 µM (inactive) in the assay with ACHN; 20.7 µM (inactive) in the assay with SW-620; 13.5 µM (inactive) with HCC 2998; 19.7 µM (inactive) in the assay on SN12C; 21.2 µM (inactive) with UACC-62. For the same compound, the GI50 in the assay with RXF 393 is 14.8 µM (inactive); with HL-60, 10.4 µM (inactive); in the assay on A549, 24.3 µM (inactive); with HT-29, 8.49 µM (inactive); with COLO 205, 16.4 µM (inactive); in the assay with OVCAR-4, 16.4 µM (inactive). Also, the GI50 in the assay on HCT-116 is 16.7 µM (inactive); in the assay with U-251, 20.8 µM (inactive).
As to `Cc1c(/C=N/NC(=O)c2ccccc2O)c(=O)n(-c2ccccc2)n1C`, the GI50 in the assay with Malme-3M was > 100 µM (inactive); with HOP-62, 58.3 µM (inactive); with MOLT-4, 72.6 µM (inactive); with K562 it was > 100 µM (inactive); with SF-295 it was > 100 µM (inactive); in the assay on OVCAR-3, > 100 µM (inactive). Besides, the GI50 in the assay with OVCAR-8, in the assay with ACHN, in the assay on SW-620, with HCC 2998, in the assay on SN12C and with UACC-62 was > 100 µM (inactive) each time. For the same compound, the GI50 was 49.2 µM (inactive) in the assay with RXF 393; 28.1 µM (inactive) with HL-60; > 100 µM (inactive) with A549; > 100 µM (inactive) in the assay with HT-29; > 100 µM (inactive) in the assay on COLO 205; > 100 µM (inactive) in the assay with OVCAR-4. The GI50 with HCT-116 is 64.9 µM (inactive); in the assay on U-251, > 100 µM (inactive).
With `COc1ccc(OC)c2c1C(=O)C(Cl)=C(N1CCN(CCOCCO)CC1)C2=O`, the GI50 with Malme-3M was 19.8 µM (inactive); with HOP-62, 5.07 µM (inactive); in the assay on MOLT-4 it was 4.32 µM (inactive); in the assay on K562, 1.91 µM (inactive); in the assay on SF-295, 18.7 µM (inactive); in the assay with OVCAR-3 it was 17.3 µM (inactive). The GI50 in the assay on OVCAR-8 is 16.6 µM (inactive); in the assay with ACHN it was 16.6 µM (inactive); in the assay on SW-620, 8.85 µM (inactive); in the assay on HCC 2998 it was 12.4 µM (inactive); in the assay on SN12C, 12.4 µM (inactive); with UACC-62 it was 10.5 µM (inactive). Also, the GI50 with RXF 393 was 19 µM (inactive); in the assay with HL-60 it was 1.08 µM (active); in the assay on A549, 20.5 µM (inactive); in the assay on HT-29, 6 µM (inactive); with COLO 205, > 10 µM (inactive); in the assay with OVCAR-4, 17.9 µM (inactive). In addition, the GI50 in the assay with HCT-116 was 4.66 µM (inactive); in the assay with U-251 it was 21.4 µM (inactive).
Take `CN1C(=O)C2C=C3CCCCC3=CC2N(C)C1=O` (stereo not given): the GI50 in the assay on Malme-3M, in the assay on HOP-62, in the assay on MOLT-4, in the assay with K562, with SF-295 and with OVCAR-3 was > 100 µM (inactive) in each case. Also, the GI50 in the assay with OVCAR-8, with ACHN, with SW-620, in the assay on HCC 2998, in the assay on SN12C and in the assay with UACC-62 was > 100 µM (inactive) each time. For the same compound, the GI50 in the assay on RXF 393, in the assay with HL-60, in the assay on A549, in the assay on HT-29, in the assay with COLO 205 and in the assay on OVCAR-4 was > 100 µM (inactive) in each case. The GI50 in the assay on HCT-116 and in the assay with U-251 was > 100 µM (inactive) throughout.
For `Cc1ccc(S(=O)(=O)C2=Cc3ccc(C(F)(F)F)cc3C2(O)c2cccc(C(F)(F)F)c2)cc1` (stereo not given), the GI50 with Malme-3M is 2.02 µM (inactive); in the assay with HOP-62, 7.35 µM (inactive); in the assay on MOLT-4, 2.5 µM (inactive); in the assay on K562 it was 1.99 µM (inactive); with SF-295, 2.45 µM (inactive); in the assay on OVCAR-3 it was 1.64 µM (inactive). The GI50 in the assay on OVCAR-8 was 1.41 µM (inactive); in the assay on ACHN, 2.46 µM (inactive); in the assay on SW-620 it was 1.85 µM (inactive); in the assay with HCC 2998, 2.43 µM (inactive); in the assay on SN12C, 1.88 µM (inactive); in the assay on UACC-62, 2.39 µM (inactive). In addition, the GI50 in the assay with RXF 393 was 2.23 µM (inactive); in the assay on HL-60, 1.65 µM (inactive); with A549, 2.99 µM (inactive); in the assay on HT-29, 2.19 µM (inactive); with COLO 205, 1.79 µM (inactive); in the assay with OVCAR-4, 1.85 µM (inactive). Besides, the results for the GI50 in the assay on HCT-116 and in the assay with U-251 were 1.58 µM (inactive) and 1.87 µM (inactive), respectively.
For `COC(=O)[C@@H](NC1(c2ccccc2)c2ccccc2-c2ccccc21)[C@@H](C(=O)OC)N(NC(=O)OCc1ccccc1)C(=O)OCc1ccccc1.COC(=O)[C@@H](NC1(c2ccccc2)c2ccccc2-c2ccccc21)[C@H](C(=O)OC)N(NC(=O)OCc1ccccc1)C(=O)OCc1ccccc1`, the GI50 was 27.4 µM (inactive) in the assay on Malme-3M; > 100 µM (inactive) in the assay with HOP-62; > 100 µM (inactive) in the assay with MOLT-4; > 100 µM (inactive) in the assay with K562; > 100 µM (inactive) in the assay on SF-295; > 100 µM (inactive) in the assay on OVCAR-3. The GI50 was > 100 µM (inactive) in the assay with OVCAR-8; > 100 µM (inactive) in the assay with ACHN; > 100 µM (inactive) in the assay on SW-620; 86.9 µM (inactive) with HCC 2998; > 100 µM (inactive) in the assay on SN12C; > 100 µM (inactive) in the assay on UACC-62. The GI50 in the assay on RXF 393, in the assay with HL-60, in the assay on A549, in the assay on HT-29, in the assay with COLO 205 and in the assay on OVCAR-4 was > 100 µM (inactive) throughout. Further, the figures for the GI50 in the assay with HCT-116 and with U-251 were > 100 µM (inactive) and 33.8 µM (inactive), respectively.
Take `COc1cc2c3c(c4ccc(O)cc4c2cc1OC)[C@@H](O)[C@@H]1CCCN1C3`: the GI50 was < 0.001 µM (active) in the assay with Malme-3M; < 0.001 µM (active) with HOP-62; < 0.001 µM (active) in the assay on MOLT-4; 0.00203 µM (active) in the assay on K562; < 0.001 µM (active) in the assay with SF-295; 0.00122 µM (active) in the assay with OVCAR-3. For the same compound, the GI50 was < 0.001 µM (active) in the assay with OVCAR-8; < 0.001 µM (active) in the assay with ACHN; < 0.001 µM (active) with SW-620; < 0.001 µM (active) with HCC 2998; < 0.001 µM (active) in the assay on SN12C; 0.00105 µM (active) with UACC-62. Moreover, the GI50 with RXF 393 is 0.00123 µM (active); in the assay with HL-60 it was 0.00116 µM (active); with A549, < 0.001 µM (active); with HT-29 it was 0.00233 µM (active); with COLO 205 it was 0.0178 µM (active); in the assay on OVCAR-4 it was < 0.001 µM (active). The GI50 with HCT-116 and in the assay on U-251 was < 0.001 µM (active) in each case.
